Test results published in publication PMC5118533, “Phase II Trial of Angiotensin-(1-7) for the Treatment of Patients with Metastatic Sarcoma” (Sarcoma, 2016).
Like-named read-outs stand apart in the source and are kept apart here.

Experiments:
[1] = Phase II trial: adverse events (CTCAE v3.0); type: in vivo, human
Description: Ang-(1-7) was administered by subcutaneous injection once daily continuously. One cycle was defined as a 21-day period. Toxicities were assessed weekly during the first cycle and on the first day of each subsequent cycle. In the absence of unacceptable treatment-related toxicity, patients continued treatment until disease progression.
Two dose cohorts were planned. In the first cohort, twenty patients were treated at a dose of 20 mg daily which is similar to the weight-based dose of 400 mcg/kg identified as the MTD in the phase I study. Unlike the phase I study, this study utilized continuous daily dosing rather than five days every three weeks. A planned interim safety evaluation was performed after the enrollment of 10 patients in the first cohort. […] Patients in this cohort would have received Ang-(1-7) at a dose of 10 mg daily if excessive toxicities had been observed in the 20 mg cohort. Safety events that would trigger dose deescalation included 3 strokes in any cohort or other evidence of excessive toxicity.
Tumor measurements were performed using RECIST version 1.1 prior to initiation of treatment and then every two cycles until disease progression or unacceptable toxicity. Toxicities were graded using the Common Terminology Criteria for Adverse Events, version 3.0. […]

[2] = Plasma Ang-(1-7) concentration, radioimmunoassay; type: in vivo; conditions: human, sc, median, RIA, P < 0.05 vs baseline
Description: In the phase I trial, statistically significant changes in PlGF concentrations were identified 4 hours after the first Ang-(1-7) injection. To prospectively evaluate this biomarker, PlGF levels as well as VEGF, Ang-(1-7), Ang II, and Ang I were measured prior to the first dose, 4 hours after the first dose, and after 21 days of treatment in the phase II trial. Blood samples were immediately placed on ice and processed within 30 minutes of collection. For the angiotensin peptides, blood was taken in an EDTA containing tube with a cocktail of inhibitors to prevent in vitro generation or degradation of peptides, as previously described. Plasma samples were stored at −80°C. Concentrations of Ang-(1-7) (developed by laboratory), Ang II (Alpco, Windham, NH), and Ang I (Peninsula, San Carlos, CA) were measured by the Hypertension Core Facility of Wake Forest University using three established radioimmunoassay methods. Aliquots of plasma from the same time points were assayed by Aushon Biosystems (Billerica, MA) using Searchlight ELISA technology to quantify circulating vascular endothelial growth factor (VEGF) and placental growth factor (PlGF). […]
The study was designed with 87% power to detect a response rate by RECIST criteria of 10% in the study population. […] Levels of biomarker expression over time were evaluated using nonparametric, Wilcoxon signed rank tests. […]

[3] = phase I, ref [16], cited from earlier work
Description: A phase I trial using subcutaneous administration of Ang-(1-7) for the treatment of patients with advanced solid tumors was previously reported. This study evaluated the maximum tolerated dose (MTD), toxicities, and pharmacokinetics of Ang-(1-7) when given subcutaneously once daily for five consecutive days on a 21-day cycle. This study identified 400 mcg/kg as the MTD for this schedule.

SMILES: CC[C@H](C)[C@H](NC(=O)[C@H](Cc1ccc(O)cc1)NC(=O)[C@@H](NC(=O)[C@H](CCCNC(=N)N)NC(=O)[C@@H](N)CC(=O)O)C(C)C)C(=O)N[C@@H](Cc1c[nH]cn1)C(=O)N1CCC[C@H]1C(=O)O [Ang-(1-7), Angiotensin-(1-7)]
- deaths on study or within 30 days of completing treatment ([1]; 20 patients, all attributed to progressive cancer, felt unrelated to treatment): Three
- pregnancy outcome ([1]; in vivo): delivered a healthy child
- level at 4 h ([2]; 4 hours after first dose, 20 mg s.c.): 0.0611 ng/mL
- level at 528 h ([2]; day 22, 20 mg daily s.c.): 0.0412 ng/mL
- serious adverse event at least possibly related ([3]; 400 mcg/kg dose level): deep vein thrombosis
- half-life at the MTD ([3]; 400 mcg/kg s.c., considerable intra- and interpatient variability): 36 min
- serious adverse event at least possibly related ([3]; 700 mcg/kg dose level (first event named)): stroke
- serious adverse event at least possibly related ([3]; 700 mcg/kg dose level (second event named)): cranial neuropathy
- maximum tolerated dose (MTD) ([3]; s.c. once daily for five consecutive days on a 21-day cycle, advanced solid tumors): 0.4 mg/kg
